# Publication PMC11807261 (ACS infectious diseases, 2022)
# System: GDI-KD-9, the Mtb H37Ra-derived glnA1 knockdown mutant
# Type: cell-based, Mycobacterium tuberculosis
Compound,GIC shift caused by the reduction of glnA1 expression,growth inhibition at high concentrations,level at which growth inhibition saturates [% full scale],GIC shift (times more sensitive)
"CS(=N)(=O)CCC(N)C(=O)O [MSO, L-methionine S-sulfoximine]",16 fold,inhibits the growth completely,,
"C[C@]1(O)C[C@@H](c2nc(-c3ccc4ccc(-c5ccccc5)nc4c3)c3c(N)nccn32)C1 [LIN, linsitinib]",,,20,
COc1ccc2cc(-c3nc(C(C)(C)C)[nH]c3-c3ccnc(N)c3)ccc2c1 [11a],3- to 4 fold,,20,3.6 times
"CO[C@H]1/C=C/O[C@@]2(C)Oc3c(C)c(O)c4c(O)c(c(/C=N/N5CCN(C)CC5)c(O)c4c3C2=O)NC(=O)/C(C)=C\C=C\[C@H](C)[C@H](O)[C@@H](C)[C@@H](O)[C@@H](C)[C@H](OC(C)=O)[C@@H]1C [RIF, rifampicin]",remained susceptible,,,did not show any GIC shift
